Measured values published in PubChem BioAssay AID248 (DTP/NCI, 2004).
“And” between values parts separate entries of the source, which are not always exact repeats. Equal values may be shown once. Toxic doses and inconclusive results are not listed. Cut-off read from the data, not from the text of the source: active = T/C of 150% or more; inactive = T/C below 125%.

System: L1210 leukemia ip in BDF1 mice, survival T/C
Test: NCI In Vivo Anticancer Drug Screen. Data for tumor model L1210 Leukemia (intraperitoneal) in B6D2F1 (BDF1) mice
Conditions: endpoint: mean survival time, higher = longer survival
How it was run: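 Tumor cells were implanted, animals were treated, and survival was followed. The result divides the treated measurement by the vehicle-control measurement.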

[1] = dose: 10.0 mg/kg/injection, schedule: Q04DX002 (ip), vehicle: Klucel (hydroxypropylcellulose) (HPC)
[2] = dose: 20.0 mg/kg/injection, schedule: Q04DX002 (ip), vehicle: Klucel (hydroxypropylcellulose) (HPC)
[3] = dose: 40.0 mg/kg/injection, schedule: Q04DX002 (ip), vehicle: Klucel (hydroxypropylcellulose) (HPC)
[4] = dose: 200.0 mg/kg/injection, schedule: Q04DX002 (ip), vehicle: Klucel (hydroxypropylcellulose) (HPC)
[5] = dose: 400.0 mg/kg/injection, schedule: Q04DX002 (ip), vehicle: Klucel (hydroxypropylcellulose) (HPC)
[6] = dose: 100.0 mg/kg/injection, schedule: Q01DX001 (ip), vehicle: Klucel (hydroxypropylcellulose) (HPC)
[7] = dose: 200.0 mg/kg/injection, schedule: Q01DX001 (ip), vehicle: Klucel (hydroxypropylcellulose) (HPC)
[8] = dose: 400.0 mg/kg/injection, schedule: Q01DX001 (ip), vehicle: Klucel (hydroxypropylcellulose) (HPC)
[9] = dose: 100.0 mg/kg/injection, schedule: Q04DX003 (ip), vehicle: Klucel (hydroxypropylcellulose) (HPC)
[10] = dose: 100.0 mg/kg/injection, schedule: Q04DX002 (ip), vehicle: Klucel (hydroxypropylcellulose) (HPC)
[11] = dose: 5.0 mg/kg/injection, schedule: Q01DX001 (ip), vehicle: saline
[12] = dose: 10.0 mg/kg/injection, schedule: Q01DX001 (ip), vehicle: saline
[13] = dose: 100.0 mg/kg/injection, schedule: Q04DX003 (ip), vehicle: saline with Tween-80
[14] = dose: 200.0 mg/kg/injection, schedule: Q04DX003 (ip), vehicle: saline with Tween-80
[15] = dose: 100.0 mg/kg/injection, schedule: Q01DX009 (ip), vehicle: Klucel (hydroxypropylcellulose) (HPC)
[16] = dose: 200.0 mg/kg/injection, schedule: Q01DX009 (ip), vehicle: Klucel (hydroxypropylcellulose) (HPC)
[17] = dose: 400.0 mg/kg/injection, schedule: Q01DX009 (ip), vehicle: Klucel (hydroxypropylcellulose) (HPC)
[18] = dose: 200.0 mg/kg/injection, schedule: Q04DX003 (ip), vehicle: Klucel (hydroxypropylcellulose) (HPC)
[19] = dose: 400.0 mg/kg/injection, schedule: Q04DX003 (ip), vehicle: Klucel (hydroxypropylcellulose) (HPC)

Measured: T/C

O=C1OC2CCCCC2/C1=C/N1CCCCC1 (configuration not stated)
inactive: dose: 5.0 mg/kg/injection, schedule: Q04DX002 (ip), vehicle: Klucel (hydroxypropylcellulose) (HPC) 92 % of control | [1] 102 % of control | [2] 107 % of control | [3] 93 % of control | dose: 50.0 mg/kg/injection, schedule: Q04DX002 (ip), vehicle: Klucel (hydroxypropylcellulose) (HPC) 103 % of control | [4] 102 % of control and 103 % of control | [5] 88 % of control

O=[N+]([O-])c1cc(Br)c2c(c1)CCN2
inactive: dose: 12.5 mg/kg/injection, schedule: Q01DX005 (ip), vehicle: other 100 % of control | dose: 25.0 mg/kg/injection, schedule: Q01DX005 (ip), vehicle: other 102 % of control | dose: 50.0 mg/kg/injection, schedule: Q01DX005 (ip), vehicle: other 100 % of control | dose: 100.0 mg/kg/injection, schedule: Q01DX005 (ip), vehicle: other 105 % of control | dose: 200.0 mg/kg/injection, schedule: Q01DX005 (ip), vehicle: other 102 % of control

COC(=O)N1C(c2ccc(OC)cc2)CS1(=O)=O (configuration not stated)
inactive: dose: 75.0 mg/kg/injection, schedule: Q04DX003 (ip), vehicle: Klucel (hydroxypropylcellulose) (HPC) 101 % of control | [6] 97 % of control | dose: 150.0 mg/kg/injection, schedule: Q04DX003 (ip), vehicle: Klucel (hydroxypropylcellulose) (HPC) 98 % of control | [7] 102 % of control | dose: 300.0 mg/kg/injection, schedule: Q04DX003 (ip), vehicle: Klucel (hydroxypropylcellulose) (HPC) 116 % of control | [8] 97 % of control

CCOC(=O)C1(C(=O)OCC)CCC2Nc3ccccc3CC(=O)N21 (configuration not stated)
inactive: dose: 25.0 mg/kg/injection, schedule: Q04DX003 (ip), vehicle: Klucel (hydroxypropylcellulose) (HPC) 101 % of control | dose: 50.0 mg/kg/injection, schedule: Q04DX003 (ip), vehicle: Klucel (hydroxypropylcellulose) (HPC) 94 % of control | [9] 100 % of control

NC(=O)NCN1C(=O)c2ccccc2C1=O
inactive: [10] 100 % of control | [4] 94 % of control | [5] 90 % of control

Cn1cnnc1[N+](=O)[O-]
inactive: dose: 100.0 mg/kg/injection, schedule: Q04DX003 (ip), vehicle: saline sonified 105 % of control

CS(=O)(=O)OCCN(CCOS(C)(=O)=O)c1cccc(F)c1
inactive: [11] 98 % of control and 113 % of control | dose: 9.0 mg/kg/injection, schedule: Q01DX001 (ip), vehicle: saline 98 % of control | [12] 100 % of control | dose: 13.0 mg/kg/injection, schedule: Q01DX001 (ip), vehicle: saline 96 % of control | dose: 30.0 mg/kg/injection, schedule: Q01DX001 (ip), vehicle: saline 97 % of control | dose: 40.0 mg/kg/injection, schedule: Q01DX001 (ip), vehicle: saline 100 % of control | dose: 50.0 mg/kg/injection, schedule: Q01DX001 (ip), vehicle: saline 103 % of control | dose: 80.0 mg/kg/injection, schedule: Q01DX001 (ip), vehicle: saline 98 % of control and 87 % of control | dose: 100.0 mg/kg/injection, schedule: Q01DX001 (ip), vehicle: saline 105 % of control | dose: 200.0 mg/kg/injection, schedule: Q01DX001 (ip), vehicle: saline 121 % of control

O=[N+]([O-])c1cccc(/C=C/c2ccc(S(=O)(=O)F)cc2)c1
inactive: [13] 95 % of control | [14] 90 % of control

CC1(C)C[N+](C)(Cc2ccccc2)C1
inactive: [13] 101 % of control

Cc1cc(OC(=O)Nc2cc(C(F)(F)F)ccc2Cl)cc(C)c1Cl
inactive: [15] 91 % of control | [16] 104 % of control | [17] 93 % of control

S=P(CP(c1ccccc1)c1ccccc1)(c1ccccc1)c1ccccc1
inactive: dose: 100.0 mg/kg/injection, schedule: Q04DX002 (sc), vehicle: olive oil, sesame oil, peanut oil 100 % of control | dose: 200.0 mg/kg/injection, schedule: Q04DX002 (sc), vehicle: olive oil, sesame oil, peanut oil 107 % of control | dose: 400.0 mg/kg/injection, schedule: Q04DX002 (sc), vehicle: olive oil, sesame oil, peanut oil 104 % of control

COC1OC(C(O)CO)C(O)C(O)C1O (configuration not stated)
inactive: dose: 100.0 mg/kg/injection, schedule: Q01DX009 (ip), vehicle: saline with Tween-80 110 % of control | dose: 200.0 mg/kg/injection, schedule: Q01DX009 (ip), vehicle: saline with Tween-80 100 % of control | dose: 400.0 mg/kg/injection, schedule: Q01DX009 (ip), vehicle: saline with Tween-80 104 % of control

CCCCCCCCCCCCCCCC[N+]1(CC)CCOCC1
inactive: dose: 5.0 mg/kg/injection, schedule: Q01DX001 (ip), vehicle: Klucel (hydroxypropylcellulose) (HPC) 97 % of control | [11] 100 % of control | dose: 5.0 mg/kg/injection, schedule: Q01DX009 (ip), vehicle: Klucel (hydroxypropylcellulose) (HPC) 98 % of control and 103 % of control | dose: 10.0 mg/kg/injection, schedule: Q01DX001 (ip), vehicle: Klucel (hydroxypropylcellulose) (HPC) 113 % of control | [12] 103 % of control | dose: 10.0 mg/kg/injection, schedule: Q01DX009 (ip), vehicle: saline 121 % of control and 88 % of control | [1] 98 % of control and 108 % of control | dose: 10.0 mg/kg/injection, schedule: Q04DX002 (ip), vehicle: saline 95 % of control | dose: 20.0 mg/kg/injection, schedule: Q01DX001 (ip), vehicle: Klucel (hydroxypropylcellulose) (HPC) 111 % of control | dose: 20.0 mg/kg/injection, schedule: Q01DX001 (ip), vehicle: saline 103 % of control | [2] 98 % of control and 101 % of control | dose: 20.0 mg/kg/injection, schedule: Q04DX002 (ip), vehicle: saline 102 % of control | [3] 90 % of control | dose: 40.0 mg/kg/injection, schedule: Q04DX002 (ip), vehicle: saline 95 % of control and 98 % of control | [4] 93 % of control | [5] 88 % of control

CC(=O)Cc1ccc(C(=O)C(C)Cc2ccc(C(C)=O)cc2)cc1 (configuration not stated)
inactive: [13] 90 % of control | [14] 110 % of control | dose: 400.0 mg/kg/injection, schedule: Q04DX003 (ip), vehicle: saline with Tween-80 92 % of control

CC(=O)c1cccc(O)c1
inactive: dose: 100.0 mg/kg/injection, schedule: Q04DX002 (ip), vehicle: saline with Tween-80 98 % of control | dose: 200.0 mg/kg/injection, schedule: Q04DX002 (ip), vehicle: saline with Tween-80 95 % of control | dose: 400.0 mg/kg/injection, schedule: Q04DX002 (ip), vehicle: saline with Tween-80 102 % of control

C=CCC#N
inactive: dose: 25.0 mg/kg/injection, schedule: Q01DX009 (ip), vehicle: saline 95 % of control | dose: 50.0 mg/kg/injection, schedule: Q01DX009 (ip), vehicle: saline 101 % of control | dose: 100.0 mg/kg/injection, schedule: Q01DX009 (ip), vehicle: saline 97 % of control

CC(C)(C)c1cc(/C=N/NC(=O)CCCCCCCCC(=O)N/N=C/c2cc(C(C)(C)C)c(O)c(C(C)(C)C)c2)cc(C(C)(C)C)c1O
inactive: [6] 104 % of control | [15] 94 % of control | [10] 109 % of control | [9] 111 % of control | [7] 103 % of control | [16] 94 % of control and 90 % of control | [4] 100 % of control | [18] 110 % of control | [8] 93 % of control | [5] 102 % of control | [19] 108 % of control

CSc1ccc(OC(=O)Nc2ccc(Cl)c(Cl)c2)cc1C
inactive: [15] 106 % of control | [9] 88 % of control | [16] 92 % of control | [18] 93 % of control | [17] 92 % of control | [19] 88 % of control

Oc1ccc(CCNCc2cc3c(cc2Br)OCO3)cc1
inactive: dose: 50.0 mg/kg/injection, schedule: Q01DX009 (ip), vehicle: Klucel (hydroxypropylcellulose) (HPC) 101 % of control | [15] 96 % of control | [16] 108 % of control
